Experimental data from patent US6469006B1, “Antiviral indoleoxoacetyl piperazine derivatives” (priority 1999, dated 2002).

tested on: single-round infectious HIV-1 reporter virus; assay: microbe, parasite or virus in culture; format: cell-based; conditions: Human immunodeficiency virus 1, HeLa-CD4/CCR5, 72 h, read-out: % Inhibition @ 10 μM
Description: The virus infection was quantified 3 days after infection by measuring luciferase expression from integrated viral DNA in the infected cells (Chen et al, Ref. 41).
Virus production—Human embryonic Kidney cell line, 293, propagated in Dulbecco's Modified Eagle Medium (Life Technologies, Gaithersburg, Md.) containing 10% fetal Bovine serum (FBS, Sigma, St. Louis, Mo.).
Virus infection—Human epithelial cell line, HeLa, expressing the HIV-1 receptors CD4 and CCR5 was propagated in Dulbecco's Modified Eagle Medium (Life Technologies, Gaithersburg, Md.) containing 10% fetal Bovine serum (FBS, Sigma, St. Louis, Mo.) and supplemented with 0.2 mg/ml Geneticin (Life Technologies, Gaithersburg, Md.) and 0.4 mg/ml Zeocin (Invitrogen, Carlsbad, Calif.).
Virus-Replication defective reporter virus was produced by co-transfecting human embryonic Kidney 293 cells with an HIV-1 envelope DNA expression vector and a proviral cDNA containing an envelope deletion mutation and the luciferase reporter gene inserted in place of HIV-1 nef sequences (Chen, 1994). Transfections were performed using lipofectAMINE PLUS reagent as described by the manufacturer (Life Technologies, Gaithersburg, Md.).
1. Compound was added to HeLa CD4 CCR5 cells plated in 96 well plates at a cell density of 5×10^4 cells per well in 100 ul Dulbecco's Modified Eagle Medium containing 10% fetal Bovine serum at a concentration of <20 uM.
2. 100 ul of replication defective reporter virus in Dulbecco's Modified Eagle Medium was then added to the plated cells and compound at a multiplicity of infection (MOI) of 0.01, resulting in a final volume of 200 ul per well and a final compound concentration of <10 uM.
3. Samples were harvested 72 hours after infection.
4. Viral infection was monitored by measuring luciferase expression from viral DNA in the infected cells using a luciferase reporter gene assay kit (Roche Molecular Biochemicals, Indianapolis, Ind.). Infected cell supernatants were removed and 50 ul of Dulbecco's Modified Eagle Medium (without phenol red) and 50 ul of luciferase assay reagent reconstituted as described by the manufacturer (Roche Molecular Biochemicals, Indianapolis, Ind.) was added per well. Luciferase activity was then quantified by measuring luminescence using a Wallac microbeta scintillation counter.

| Structure (SMILES) | inhibition at 10 µM [%] |
| --- | --- |
| C[C@@H]1CN(C(=O)c2ccccn2)CCN1C(=O)C(=O)c1c[nH]c2c(C#N)cccc12 [Example 212] | > 98 |

same assay, conditions: Table 1, Examples 35-90; HeLa CD4 CCR5 cells, luciferase reporter virus, 3 days after infection

| Structure (SMILES) | % Inhibition @ 10 uM [%] |
| --- | --- |
| Nc1cccc(C(=O)N2CCN(C(=O)C(=O)c3c[nH]c4c(F)ccc(F)c34)CC2)c1 [Example 73] | >98 |
| Nc1cccc(C(=O)N2CCN(C(=O)C(=O)c3c[nH]c4ccccc34)CC2)c1 [Example 72] | 87 |
| COc1ccc(F)c2c(C(=O)C(=O)N3CCN(C(=O)c4cccc(N)c4)CC3C)c[nH]c12 (centres unmarked) [Example 80] | >98 |
| COc1ccc(F)c2c(C(=O)C(=O)N3CCN(C(=O)c4ccc(N)cc4)CC3C)c[nH]c12 (centres unmarked) [Example 81] | >98 |
| O=C(C(=O)N1CCN(C(=O)c2ccccc2O)CC1)c1c[nH]c2cccc(F)c12 [Example 87] | 86 |
| CC1CN(C(=O)c2ccc(N)cc2)CCN1C(=O)C(=O)c1c[nH]c2c(F)ccc(F)c12 (centres unmarked) [Example 75] | >98 |
| COc1cccc2[nH]cc(C(=O)C(=O)N3CCN(C(=O)c4cccc(N)c4)CC3C)c12 (centres unmarked) [Example 79] | >98 |
| O=C(C(=O)N1CCN(C(=O)c2cccc(O)c2)CC1)c1c[nH]c2cccc(F)c12 [Example 88] | >98 |
| CC(=O)Oc1ccc(C(=O)N2CCN(C(=O)C(=O)c3c[nH]c4cccc(F)c34)CC2)cc1 [Example 84] | 98 |
| CC1CN(C(=O)c2cccc(N)c2)CCN1C(=O)C(=O)c1c[nH]c2cccc(F)c12 (centres unmarked) [Example 76] | >98 |
| COc1ccc(Cl)c2[nH]cc(C(=O)C(=O)N3CCN(C(=O)c4ccc(N)cc4)CC3C)c12 (centres unmarked) [Example 78] | >98 |
| COc1ccc(Cl)c2[nH]cc(C(=O)C(=O)N3CCN(C(=O)c4cccc(N)c4)CC3C)c12 (centres unmarked) [Example 77] | >98 |
| CC(=O)Oc1cccc(C(=O)N2CCN(C(=O)C(=O)c3c[nH]c4cccc(F)c34)CC2)c1 [Example 83] | >98 |
| CC1CN(C(=O)c2cccc(N)c2)CCN1C(=O)C(=O)c1c[nH]c2c(F)ccc(F)c12 (centres unmarked) [Example 74] | >98 |
| CC(=O)Oc1ccccc1C(=O)N1CCN(C(=O)C(=O)c2c[nH]c3cccc(F)c23)CC1 [Example 82] | 91 |
| O=C(C(=O)N1CCN(C(=O)c2ccc(O)cc2)CC1)c1c[nH]c2cccc(F)c12 [Example 89] | 95 |
| CC(=O)Oc1cccc(C(=O)N2CCN(C(=O)C(=O)c3c[nH]c4cccc(Cl)c34)CC2)c1 [Example 86] | >98 |
| CC(=O)Oc1ccc(C(=O)N2CCN(C(=O)C(=O)c3c[nH]c4cccc(Cl)c34)CC2)cc1 [Example 85] | 93 |

same assay, conditions: Table 4; HeLa CD4 CCR5 cells, luciferase reporter virus, 3 days after infection

| Structure (SMILES) | % Inhibition @ 10 μM [%] |
| --- | --- |
| COc1ccc(OC)c2c(C(=O)C(=O)N3CCN(C(=O)c4ccc(Br)o4)CC3C)c[nH]c12 (centres unmarked) [Entry 199] | >98 |
| Cc1cccc2c(C(=O)C(=O)N3CCN(C(=O)c4ccccn4)C[C@H]3C)c[nH]c12 [Entry 209] | >98 |
| COC(=O)c1cccc2c(C(=O)C(=O)N3CCN(C(=O)c4ccc(Br)o4)CC3C)c[nH]c12 (centres unmarked) [Entry 200] | >98 |
| Cc1ccc(F)c2c(C(=O)C(=O)N3CCN(C(=O)c4ccccn4)CC3C)c[nH]c12 (centres unmarked) [Entry 197] | 93 |
| COc1cccc2c(C(=O)C(=O)N3CCN(C(=O)c4ccccn4)C[C@H]3C)c[nH]c12 [Entry 208] | >98 |
| CC1CN(C(=O)c2ccccn2)CCN1C(=O)C(=O)c1c[nH]c2c(F)ccc(F)c12 (centres unmarked) [Entry 201] | >98 |
| COc1ccc(F)c2c(C(=O)C(=O)N3CCN(C(=O)c4ccccn4)C[C@H]3C)c[nH]c12 [Entry 215] | >98 |
| COc1cccc2[nH]cc(C(=O)C(=O)N3CCN(C(=O)c4ccccn4)C[C@H]3C)c12 [Entry 213] | >98 |
| CC1CN(C(=O)c2ccccn2)CCN1C(=O)C(=O)c1c[nH]c2c(F)cccc12 (centres unmarked) [Entry 207] | >98 |
| CC1CN(C(=O)c2ccc(Br)o2)CCN1C(=O)C(=O)c1c[nH]c2c(F)ccc(F)c12 (centres unmarked) [Entry 198] | >98 |
| CC1CN(C(=O)c2ccccn2)CCN1C(=O)C(=O)c1c[nH]c2c(F)ccc(F)c12 (centres unmarked) [Entry 196] | >98 |
| CC1CN(C(=O)c2ccccn2)CCN1C(=O)C(=O)c1c[nH]c2cccc(Br)c12 (centres unmarked) [Entry 204] | 50 |
| COc1ccc(Cl)c2[nH]cc(C(=O)C(=O)N3CCN(C(=O)c4ccccn4)C[C@H]3C)c12 [Entry 211] | >98 |
| CC1CN(C(=O)c2ccccn2)CCN1C(=O)C(=O)c1c[nH]c2cc(Cl)ccc12 (centres unmarked) [Entry 206] | 88 |
| CCc1cccc2c(C(=O)C(=O)N3CCN(C(=O)c4ccccn4)C[C@H]3C)c[nH]c12 [Entry 210] | 88 |
| CC1CN(C(=O)c2ccccn2)CCN1C(=O)C(=O)c1c[nH]c2cccc(F)c12 (centres unmarked) [Entry 202] | >98 |
| CC1CN(C(=O)c2ccccn2)CCN1C(=O)C(=O)c1c[nH]c2ccc(F)cc12 (centres unmarked) [Entry 205] | 61 |
| COc1ccc(Br)c2[nH]cc(C(=O)C(=O)N3CCN(C(=O)c4ccccn4)C[C@H]3C)c12 [Entry 214] | >98 |
| CC1CN(C(=O)c2ccccn2)CCN1C(=O)C(=O)c1c[nH]c2cccc(Cl)c12 (centres unmarked) [Entry 203] | 80 |
